Experiments:
Type in all cases: binding
KRAS WT = target: T1, KRAS WT (Homo sapiens, UniProt P01116); assay: HTRF assay of wildtype K-Ras interaction with SOS1 (PPI-HTRF); conditions: HTRF, 5 nM KRAS WT; read-out: PPI-HTRF-5 nM KRAS WT
T1 construct: made in house; host or cells: E. coli, e.g. BL21 (DE3)
Description: (§1) This assay can be also used to assess a selective inhibition or reduction of signaling output of a mutant Ras protein relative to a wildtype, or relative to a different mutant Ras protein. For example, the equilibrium interaction of wildtype Kras or K-Ras mutant (e.g., wildtype or a mutant thereof including those mentioned in Example 4) with SOS1 (e.g., hSOS1) can be assessed as a proxy or an indication for a subject compound's ability to bind and inhibit Ras protein. HTRF assay detects from (i) a fluorescence resonance energy transfer (FRET) donor (e.g., antiGST-Europium) that is bound to GST-tagged K-Ras mutant to (ii) a FRET acceptor (e.g., anti-6His-XL665) bound to a His-tagged hSOS1.
(§2) The assay buffer can contain ˜5 mM HEPES pH 7.4, ˜150 mM NaCl, ˜1 mM DTT, 0.05% BSA and 0.0025% (v/v) Igepal. A Ras working solution is prepared in an assay buffer containing typically a suitable amount of the protein construct (e.g., GST-tagged K-Ras mutant) and the FRET donor (e.g., antiGST-Eu(K) from Cisbio, France). A SOS1 working solution is prepared in an assay buffer containing suitable amount of the protein construct (e.g., His-hSOS1) and the FRET acceptor (e.g., anti-6His-XL665 from Cisbio, France). A suitable amount of the protein construct will depend on the range of activity or range of IC50 values being detected or under investigation. For detecting IC50 within a range of 500 nM, the protein constructs of the same range of molarity can be utilized. […] A fixed volume of DMSO with or without test compound is transferred into a 384-well plate. Ras working solution is added to all wells of the test plate. SOS1 working solution is added to all wells except for those that are subsequently filled the inhibitor control solution. Upon incubation for about 10 minutes or longer, the fluorescence is measured with a M1000Pro plate reader (Tecan) using HTRF detection (excitation 337 nm, emission 1: 620 nm, emission 2: 665 nm). Compounds are tested in duplicates at different concentrations (for example, 10 μM, 2.5 μM, 0.63 μM, 0.16 μM, 0.04 μM, 0.01 μM test compound). The ratiometric data (i.e., emission 2 divided by emission 1) is used to calculate IC50 values against Ras using GraphPad Prism (GraphPad software). Following this general procedure, samples were tested with or without a subject compound disclosed herein including compounds exemplified in Table 1 to assess their abilities to inhibit a mutant K-Ras relative to another mutant K-Ras or wildtype K-Ras. Signaling output measured in terms of IC50 values can be obtained, a ratio of IC50 against one mutant relative to another mutant can be calculated. For instance, a selective reduction of K-Ras G12D signaling output can be evidenced by a ratio greater than one. In particular, a selective reduction of K-Ras G12D signaling relative to K-Ras WT signaling is evidenced as the ratio of IC50 (against K-Ras WT) to IC50 (against K-Ras G12D) is greater than 1.

KRAS G12S = target: T2, KRAS G12S (Homo sapiens, UniProt P01116, G12S); assay: HTRF assay of K-Ras G12S interaction with SOS1 (PPI-HTRF); conditions: 5 nM KRAS G12S, read-out: PPI-HTRF-5 nM KRAS G12S
T2 construct: made in house; host or cells: E. coli, e.g. BL21 (DE3)
Description: as §1, §2

KRAS G12D = target: T3, KRAS G12D (Homo sapiens, UniProt P01116, G12D); assay: HTRF assay of K-Ras G12D interaction with SOS1 (PPI-HTRF); conditions: HTRF, 5 nM KRAS G12D; read-out: PPI-HTRF-5 nM KRAS G12D
T3 construct: made in house; host or cells: E. coli, e.g. BL21 (DE3)
Description: as §1, §2

T3 sequence (P01116 1-188 isoform P01116-2 G12D): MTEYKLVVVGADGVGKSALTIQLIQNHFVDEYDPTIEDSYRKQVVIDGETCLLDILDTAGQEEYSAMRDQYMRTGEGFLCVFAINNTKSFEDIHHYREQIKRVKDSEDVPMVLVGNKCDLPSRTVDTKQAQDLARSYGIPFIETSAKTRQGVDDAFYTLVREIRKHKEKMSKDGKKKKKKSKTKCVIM
T1 sequence (P01116 1-188 isoform P01116-2): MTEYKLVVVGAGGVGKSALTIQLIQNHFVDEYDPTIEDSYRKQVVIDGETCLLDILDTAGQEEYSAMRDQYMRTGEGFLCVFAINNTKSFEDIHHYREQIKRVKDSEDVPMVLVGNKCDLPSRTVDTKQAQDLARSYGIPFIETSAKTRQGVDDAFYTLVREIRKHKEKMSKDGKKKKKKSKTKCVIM
T2 sequence (P01116 1-188 isoform P01116-2 G12S): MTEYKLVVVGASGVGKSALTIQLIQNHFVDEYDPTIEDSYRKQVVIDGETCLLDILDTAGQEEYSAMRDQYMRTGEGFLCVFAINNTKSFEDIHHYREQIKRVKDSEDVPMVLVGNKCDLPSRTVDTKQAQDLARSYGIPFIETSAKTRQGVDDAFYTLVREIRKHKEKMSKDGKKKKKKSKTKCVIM

Row | Structure (SMILES) | IC50 (KRAS WT) | IC50 (KRAS G12S) | IC50 (KRAS G12D)
1 | N#Cc1c(N)sc2c(F)ccc(-c3c(Cl)cc4c(N5CC[C@@]6(CCN6C(=O)n6cnc(F)n6)C5)nc(OC[C@@]56CCCN5C[C@H](F)C6)nc4c3F)c12 (atropisomer, axis not shown; (aS)) [Compound 281, (R)-2-amino-4-(6-chloro-8-fluoro-4-((R)-1-(3-fluoro-1H-1,2,4-triazole-1-carbonyl)-1,6-diazaspiro[3.4]octan-6-yl)-2-(((2R,7aS)-2-fluorotetrahydro-H-pyrrolizin-7a(5H)-yl)methoxy)quinazolin-7-yl)-7-fluorobenzo[b]thiophene-3-carbonitrile] | < 5 µM | < 5 µM | < 5 µM
2 | Nc1nc2c(-c3c(Cl)cc4c(NC5CC6(CCN6)C5)nc(OC[C@@]56CCCN5C[C@H](F)C6)nc4c3F)ccc(F)c2s1 (stereo partly drawn) [Compound 230, 4-(4-((1-azaspiro[3.3]heptan-6-yl)amino)-6-chloro-8-fluoro-2-(((2R,7aS)-2-fluorotetrahydro-1H-pyrrolizin-7a(5H)-yl)methoxy)quinazolin-7-yl)-7-fluorobenzo[d]thiazol-2-amine] | < 5 µM | < 5 µM | < 5 µM
3 | Cc1ncn(C(=O)N2CCOCC23CCN(c2nc(OC[C@@]45CCCN4C[C@H](F)C5)nc4c(F)c(-c5ccc(F)c6sc(N)c(C#N)c56)c(Cl)cc24)C3)n1 (stereo partly drawn) [Compound 214, 2-amino-4-(6-chloro-8-fluoro-2-(((2R,7aS)-2-fluorotetrahydro-1H-pyrrolizin-7a(5H)-yl)methoxy)-4-(6-(3-methyl-1H-1,2,4-triazole-1-carbonyl)-9-oxa-2,6-diazaspiro[4.5]decan-2-yl)quinazolin-7-yl)-7-fluorobenzo[b]thiophene-3-carbonitrile] | < 5 µM | < 5 µM | < 5 µM
4 | N#Cc1c(N)sc2c(F)ccc(-c3c(Cl)cc4c(N5CC[C@]6(CCN6)C5)nc(OC[C@@]56CCCN5C[C@H](F)C6)nc4c3F)c12 [Compound 285, 2-amino-4-(6-chloro-8-fluoro-2-(((2R,7aS)-2-fluorotetrahydro-1H-pyrrolizin-7a(5H)-yl)methoxy)-4-((R)-1,6-diazaspiro[3.4]octan-6-yl)quinazolin-7-yl)-7-fluorobenzo[b]thiophene-3-carbonitrile] | < 5 µM | < 5 µM | < 5 µM
5 | N#Cc1c(N)sc2c(F)ccc(-c3c(Cl)cc4c(N5CCC6(CCN6C(=O)CCl)C5)nc(OC[C@@]56CCCN5C[C@H](F)C6)nc4c3F)c12 (stereo partly drawn) [Compound 294, 2-amino-4-(6-chloro-4-(1-(2-chloroacetyl)-1,6-diazaspiro[3.4]octan-6-yl)-8-fluoro-2-(((2R,7aS)-2-fluorotetrahydro-1H-pyrrolizin-7a(5H)-yl)methoxy)quinazolin-7-yl)-7-fluorobenzo[b]thiophene-3-carbonitrile] | < 5 µM | < 5 µM | < 5 µM
6 | N#Cc1c(N)sc2c(F)ccc(-c3c(Cl)cc4c(N5CCC6(CCN6)C5)nc(OC[C@@]56CCCN5C[C@H](F)C6)nc4c3F)c12 (stereo partly drawn) [Compound 212, 2-amino-4-(6-chloro-8-fluoro-2-(((2R,7aS)-2-fluorotetrahydro-1H-pyrrolizin-7a(5H)-yl)methoxy)-4-(1,6-diazaspiro[3.4]octan-6-yl)quinazolin-7-yl)-7-fluorobenzo[b]thiophene-3-carbonitrile] | < 5 µM | < 5 µM | < 5 µM
7 | N#Cc1c(N)sc2c(F)ccc(-c3c(Cl)cc4c(N5CCC6(CCN6C(=O)C(F)Cl)C5)nc(OC[C@@]56CCCN5C[C@H](F)C6)nc4c3F)c12 (stereo partly drawn) [Compound 244, 2-amino-4-(6-chloro-4-(1-(2-chloro-2-fluoroacetyl)-1,6-diazaspiro[3.4]octan-6-yl)-8-fluoro-2-(((2R,7aS)-2-fluorotetrahydro-1H-pyrrolizin-7a(5H)-yl)methoxy)quinazolin-7-yl)-7-fluorobenzo[b]thiophene-3-carbonitrile] | < 5 µM | < 5 µM | < 5 µM
8 | N#Cc1c(N)sc2c(F)ccc(-c3c(Cl)cc4c(N5CCC6(CCN6C(=O)n6cccc6C#N)C5)nc(OC[C@@]56CCCN5C[C@H](F)C6)nc4c3F)c12 (stereo partly drawn) [Compound 289, 1-(6-(7-(2-amino-3-cyano-7-fluorobenzo[b]thiophen-4-yl)-6-chloro-8-fluoro-2-(((2R,7aS)-2-fluorotetrahydro-1H-pyrrolizin-7a(5H)-yl)methoxy)quinazolin-4-yl)-1,6-diazaspiro[3.4]octane-1-carbonyl)-1H-pyrrole-2-carbonitrile] | < 5 µM | < 5 µM | < 5 µM
9 | C[C@H](Oc1nc(N2CCC3(CCN3C(=O)C3CC3(F)F)C2)c2cc(Cl)c(-c3ccc(F)c4sc(N)c(C#N)c34)c(F)c2n1)[C@@H]1CCCN1C (stereo partly drawn) [Compound 280, 2-amino-4-(6-chloro-4-(1-(2,2-difluorocyclopropane-1-carbonyl)-1,6-diazaspiro[3.4]octan-6-yl)-8-fluoro-2-((S)-1-((S)-1-methylpyrrolidin-2-yl)ethoxy)quinazolin-7-yl)-7-fluorobenzo[b]thiophene-3-carbonitrile] | < 5 µM | < 5 µM | < 5 µM

Other lines, results leading:

Row | IC50 (KRAS WT) | IC50 (KRAS G12S) | IC50 (KRAS G12D) | Structure (SMILES)
10 | < 5 µM | < 5 µM | < 5 µM | Cc1nc(C)n(C(=O)N2CC[C@]23CCN(c2nc(OC[C@@]45CCCN4C[C@H](F)C5)nc4c(F)c(-c5ccc(F)c6sc(N)c(C#N)c56)c(Cl)cc24)C3)n1 [Compound 306, 2-amino-4-(6-chloro-4-((S)-1-(3,5-dimethyl-1H-1,2,4-triazole-1-carbonyl)-1,6-diazaspiro[3.4]octan-6-yl)-8-fluoro-2-(((2R,7aS)-2-fluorotetrahydro-1H-pyrrolizin-7a(5H)-yl)methoxy)quinazolin-7-yl)-7-fluorobenzo[b]thiophene-3-carbonitrile]
11 | < 5 µM | < 5 µM | < 5 µM | N#Cc1c(N)sc2c(F)ccc(-c3c(Cl)cc4c(N5CCC6(CCN6C(=O)C(Cl)Cl)C5)nc(OC[C@@]56CCCN5C[C@H](F)C6)nc4c3F)c12 (stereo partly drawn) [Compound 347, 2-amino-4-(6-chloro-4-(1-(2,2-dichloroacetyl)-1,6-diazaspiro[3.4]octan-6-yl)-8-fluoro-2-(((2R,7aS)-2-fluorotetrahydro-1H-pyrrolizin-7a(5H)-yl)methoxy)quinazolin-7-yl)-7-fluorobenzo[b]thiophene-3-carbonitrile]
12 | < 5 µM | < 5 µM | < 5 µM | N#Cc1c(N)sc2c(F)ccc(-c3c(Cl)cc4c(N5CCC6(CCN6C(=O)OC(CO)C(F)(F)F)C5)nc(OC[C@@]56CCCN5C[C@H](F)C6)nc4c3F)c12 (stereo partly drawn) [Compound 345, 1,1,1-trifluoro-3-hydroxypropan-2-yl 6-(7-(2-amino-3-cyano-7-fluorobenzo[b]thiophen-4-yl)-6-chloro-8-fluoro-2-(((2R,7aS)-2-fluorotetrahydro-1H-pyrrolizin-7a(5H)-yl)methoxy)quinazolin-4-yl)-1,6-diazaspiro[3.4]octane-1-carboxylate]
13 | < 5 µM | < 5 µM | < 5 µM | N#Cc1c(N)sc2c(F)ccc(-c3c(Cl)cc4c(N5CCC6(CCN6C(=O)n6cnc(C7CC7)n6)C5)nc(OC[C@@]56CCCN5C[C@H](F)C6)nc4c3F)c12 (stereo partly drawn) [Compound 308, 2-amino-4-(6-chloro-4-(1-(3-cyclopropyl-1H-1,2,4-triazole-1-carbonyl)-1,6-diazaspiro[3.4]octan-6-yl)-8-fluoro-2-(((2R,7aS)-2-fluorotetrahydro-1H-pyrrolizin-7a(5H)-yl)methoxy)quinazolin-7-yl)-7-fluorobenzo[b]thiophene-3-carbonitrile]
